The numbers were not newly measured in paper PMC11776332 (Virology Journal, 2025), which cites them from elsewhere.

The data set deals with HIV-1.

`C=C(C)[C@@H]1CC[C@]2(NCCN3CCS(=O)(=O)CC3)CC[C@]3(C)[C@H](CC[C@@H]4[C@@]5(C)CC=C(C6=CC[C@@](CF)(C(=O)O)CC6)C(C)(C)[C@@H]5CC[C@]43C)[C@@H]12` [GSK3640254]: the “IC50 compared with CV-10240” value is on record as “lower IC50 than CV-10240”.
